Laboratory results from patent publication US7943618B2, “Btk protein kinase inhibitors” (Roche Palo Alto LLC, priority 2007, dated 2011).

Assays:
[1] = target: T1, Btk enzyme (His-tagged, full-length) (Homo sapiens, UniProt Q06187); assay: Bruton's Tyrosine Kinase (Btk) Inhibition Assay (33P filtration capture); assay type: biochemical; settings: Bruton's tyrosine kinase Assay (Example 34), 100 μM ATP
T1 construct: 5-10 nM Btk enzyme (His-tagged, full-length); His
Excerpt: Bruton's Tyrosine Kinase (Btk) Inhibition Assay
The assay is a capture of radioactive ^33P phosphorylated product through filtration. The interactions of Btk, biotinylated SH2 peptide substrate (Src homology), and ATP lead to phosphorylation of the peptide substrate. Biotinylated product is bound streptavidin sepharose beads. All bound, radiolabeled products are detected by scintillation counter.
Plates assayed are 96-well polypropylene (Greiner) and 96-well 1.2 μm hydrophilic PVDF filter plates (Millipore).
IC50 determinations are calculated from 10 data points per compound utilizing data produced from a standard 96-well plate assay template. One control compound and seven unknown inhibitors were tested on each plate and each plate was run twice. […] The control compound was staurosporine. Background was counted in the absence of peptide substrate. Total activity was determined in the presence of peptide substrate. The following protocol was used to determine Btk inhibition.
1) Sample preparation: The test compounds were diluted at half-log increments in assay buffer (imidazole, glycerol-2-phosphate, EGTA, MnCl2, MgCl2, BSA).
2) Bead preparation • a.) rinse beads by centrifuging at 500 g • b.) reconstitute the beads with PBS and EDTA to produce a 20% bead slurry
3) Pre-incubate reaction mix without substrate (assay buffer, DTT, ATP, ^33P ATP) and mix with substrate (assay buffer, DTT, ATP, ^33P ATP, peptide substrate) 30° C. for 15 min.
4) To start assay, pre-incubate 10 μL Btk in enzyme buffer (imidazole, glycerol-2-phosphate, BSA) and 10 μL of test compounds for 10 min at RT.
5) Add 30 μL reaction mixture without or with substrate to Btk and compounds.
6) Incubate 50 μL total assay mix for 30 min at 30° C.
7) Transfer 40 μL of assay to 150 μL bead slurry in filter plate to stop reaction.
8) Wash filter plate after 30 min, with following steps • a. 3×250 μL NaCl • b. 3×250 μL NaCl containing 1% phosphoric acid • c. 1×250 μL H2O
9) Dry plate for 1 h at 65° C. or overnight at RT
10) Add 50 μL microscint-20 and count ^33P cpm on scintillation counter.
Calculate percent activity from raw data in cpm percent activity=(sample−bkg)/(total activity−bkg)×100
Calculate IC50 from percent activity, using one-site dose response sigmoidal model y=A+((B−A)/(1+((x/C)^D))))

T1 sequence (Q06187 whole entry): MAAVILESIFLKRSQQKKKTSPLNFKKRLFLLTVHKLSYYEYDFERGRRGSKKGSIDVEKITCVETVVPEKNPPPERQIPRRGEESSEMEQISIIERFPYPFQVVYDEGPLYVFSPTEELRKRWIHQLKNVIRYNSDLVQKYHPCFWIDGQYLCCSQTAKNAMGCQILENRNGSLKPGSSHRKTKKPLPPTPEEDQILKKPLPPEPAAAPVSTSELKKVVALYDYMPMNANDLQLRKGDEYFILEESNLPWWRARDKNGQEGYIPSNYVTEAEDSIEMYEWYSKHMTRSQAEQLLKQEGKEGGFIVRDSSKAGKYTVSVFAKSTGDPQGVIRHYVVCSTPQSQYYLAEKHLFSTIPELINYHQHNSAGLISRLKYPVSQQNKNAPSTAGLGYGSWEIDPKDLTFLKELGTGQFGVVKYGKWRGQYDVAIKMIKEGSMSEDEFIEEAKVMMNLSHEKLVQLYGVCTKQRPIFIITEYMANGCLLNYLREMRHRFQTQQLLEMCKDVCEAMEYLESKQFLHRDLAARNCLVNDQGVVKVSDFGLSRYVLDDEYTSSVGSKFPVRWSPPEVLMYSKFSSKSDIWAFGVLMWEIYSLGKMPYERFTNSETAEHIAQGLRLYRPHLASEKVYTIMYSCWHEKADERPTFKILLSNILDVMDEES

Q: For Cc1c(NC(=O)c2ccc(C(C)(C)C)cc2)cccc1-c1cc(Nc2ccc(C(=O)N3CCOCC3)cn2)c(=O)n(C)n1 [Compound I-1, 4-tert-Butyl-N-(2-methyl-3-{1-methyl-5-[5-(morpholine-4-carbonyl)-pyridin-2-ylamino]-1,6-oxo-dihydro-pyridazin-3-yl}-phenyl)-benzamide], which IC50 ([1]; Table I pyridazinones) is on record?
A: Its IC50 is less than 10 nM.

Q: And the melting point?
A: Its melting point is 148 to 150 °C.

Q: Which IC50 ([1]; Table I pyridazinones) does the source give for Cc1c(NC(=O)c2ccc(C(C)(C)C)cc2)cccc1-c1cc(Nc2ccc(C(=O)N3CCN(C)CC3)cn2)c(=O)n(C)n1 [Compound I-2] here?
A: Its IC50 is 14 nM.

Q: And the melting point?
A: Its melting point is 158 to 160 °C.

Q: With Cc1c(NC(=O)c2ccc(C(C)(C)C)cc2)cccc1-c1cc(Nc2ccccn2)c(=O)n(C)n1 [Compound I-3] as the molecule, how does the IC50 ([1]; Table I pyridazinones) read?
A: The IC50 was 94 nM.

Q: And the melting point?
A: Its melting point is 248.5 to 249.3 °C.

Q: Which IC50 ([1]; Table I pyridazinones) does the source give for Cc1c(NC(=O)c2ccc(C(C)(C)C)cc2)cccc1-c1cc(Nc2ccncn2)c(=O)n(C)n1 [Compound I-4] here?
A: Its IC50 is 208 nM.

Q: What about the melting point of the same molecule?
A: Its melting point is 249 to 250 °C.

Q: With Cc1c(NC(=O)c2ccc(C(C)(C)O)cc2)cccc1-c1cc(Nc2ccc(C(=O)N3CCN(C)CC3)cn2)c(=O)n(C)n1 [Compound I-5] as the molecule, how does the IC50 ([1]; Table I pyridazinones) read?
A: The IC50 was 122 nM.

Q: And the melting point?
A: Its melting point is 167.5 to 168.5 °C.

Q: With Cc1c(NC(=O)N2CCN(C(C)(C)C)CC2)cccc1-c1cc(Nc2ccc(C(=O)N3CCOCC3)cn2)c(=O)n(C)n1 [Compound I-6, 4-tert-Butyl-piperazine-1-carboxylic acid (2-methyl-3-{1-methyl-5-[5-(morpholine-4-carbonyl) -pyridin-2-ylamino]-6-oxo-1,6-dihydro-pyridazin-3-yl}-phenyl)-amide] as the molecule, how does the IC50 ([1]; Table I pyridazinones) read?
A: Its IC50 is 15500 nM.

Q: What about the melting point of the same molecule?
A: Its melting point is 166 to 169 °C.

Q: For COc1cc(C(C)(C)C)ccc1C(=O)Nc1cccc(-c2cc(Nc3ccc(C(=O)N4CCOCC4)cn3)c(=O)n(C)n2)c1C [Compound I-7], which IC50 ([1]; Table I pyridazinones) is on record?
A: The IC50 was 272 nM.

Q: And the melting point?
A: Its melting point is 156.5 to 157 °C.

Q: Which IC50 ([1]; Table I pyridazinones) does the source give for Cc1c(NC(=O)N2CC(OC(C)(C)C)C2)cccc1-c1cc(Nc2ccc(C(=O)N3CCOCC3)cn2)c(=O)n(C)n1 [Compound I-10, 3-tert-Butoxy-azetidine-1-carboxylic acid(2-methyl-3-{1-methyl-5-[5-(morpholine-4-carbonyl) -pyridin-2-ylamino]-6-oxo-1,6-dihydro-pyridazin-3-yl}-phenyl)-amide] here?
A: Its IC50 is 228 nM.

Q: What about the melting point of the same molecule?
A: Its melting point is 171 to 172 °C.

Q: With Cc1c(NC(=O)c2ccc(C(C)(C)C)cc2)cccc1-c1cc(Nc2ccnc(N3CCN(C)CC3)n2)c(=O)n(C)n1 [Compound I-11] as the molecule, how does the IC50 ([1]; Table I pyridazinones) read?
A: Its IC50 is 78 nM.

Q: What about the melting point of the same molecule?
A: The melting point was 220 to 222 °C.

Q: With CSc1nccc(Nc2cc(-c3cccc(NC(=O)c4ccc(C(C)(C)C)cc4)c3C)nn(C)c2=O)n1 [Compound I-12] as the molecule, how does the IC50 ([1]; Table I pyridazinones) read?
A: Its IC50 is 51 nM.

Q: What about the melting point of the same molecule?
A: The melting point was 224 to 225 °C.

Q: Which IC50 ([1]; Table I pyridazinones) does the source give for Cc1c(NC(=O)c2ccc(C(C)(C)C)cc2)cccc1-c1cc(Nc2ccnc(N3CCOCC3)n2)c(=O)n(C)n1 [Compound I-14] here?
A: The IC50 was 249 nM.

Q: What about the melting point of the same molecule?
A: Its melting point is 211 to 213 °C.

Q: What does the source list for Cn1nc(-c2cccc(NC(=O)c3ccc(C(C)(C)O)cc3)c2)cc(Nc2ccc(C(=O)N3CCOCC3)cn2)c1=O [Compound I-16]?
A: IC50 ([1]; Table I pyridazinones): 120 nM; melting point: 172 to 173 °C

Q: What does the source list for Cc1c(NC(=O)c2ccc(C(C)(C)C)cc2)cccc1-c1cc(Nc2ccnc(OCCN(C)C)n2)c(=O)n(C)n1 [Compound I-18]?
A: IC50 ([1]; Table I pyridazinones): 326 nM; melting point: 188 to 189 °C

Q: Which results are given for Cc1c(NC(=O)c2ccc(C(C)(C)C)cc2)cccc1-c1cc(Nc2ccnc(N3CCC(CO)C3)n2)c(=O)n(C)n1 (centres unmarked) [Compound I-20]?
A: IC50 ([1]; Table I pyridazinones): 125 nM; melting point: 210 to 211 °C

Q: For Cc1c(NC(=O)c2ccc(C(C)(C)C)cc2)cccc1-c1cc(Nc2ccnc(N3CCCC3)n2)c(=O)n(C)n1 [Compound I-21], which IC50 ([1]; Table I pyridazinones) is on record?
A: Its IC50 is 354 nM.

Q: What about the melting point of the same molecule?
A: The melting point was 193 to 195 °C.

Q: For CNC(=O)Nc1cc(-c2cccc(NC(=O)c3ccc(C(C)(C)C)cc3)c2C)nn(C)c1=O [Compound I-23, 4-tert-Butyl-N-{2-methyl-3-[1-methyl-5-(3-methyl-ureido)-6-oxo-1,6-dihydro-pyridazin-3-yl]-phenyl}-benzamide], which IC50 ([1]; Table I pyridazinones) is on record?
A: Its IC50 is 101 nM.

Q: What about the melting point of the same molecule?
A: The melting point was 287 to 288 °C.

Q: With CNC(=O)Nc1cc(-c2cccc(NC(=O)c3ccc(C(C)(C)C)cc3)c2C)cn(C)c1=O [II-4, 4-tert-Butyl-N-{2-methyl-3-[1-methyl-5-(3-methyl-ureido)-6-oxo-1,6-dihydro-pyridin-3-yl]-phenyl}-benzamide] as the molecule, how does the melting point read?
A: Its melting point is 262 to 264 °C.

Q: With Cn1cc(-c2cccc(NC(=O)c3ccc(C(C)(C)C(F)(F)F)cc3)c2CO)cc(Nc2ccc(C(=O)N3CCNCC3)cn2)c1=O [II-81, N-(2-Hydroxymethyl-3-{1-methyl-6-oxo-5-[5-(piperazine-1-carbonyl)-pyridin-2-ylamino]-1,6-dihydro-pyridin-3-yl}-phenyl)4-(2,2,2-trifluoro-1,1-dimethyl-ethyl)-benzamide] as the molecule, how does the IC50 ([1]; Table II pyridinones) read?
A: The IC50 was less than 10 nM.

Q: For Cn1cc(-c2cccc(NC(=O)c3ccc(C4CC4)cc3)c2CO)cc(NC(=O)NCCCN2CCOCC2)c1=O [II-83], which IC50 ([1]; Table II pyridinones) is on record?
A: The IC50 was 54 nM.

Q: With Cn1cc(-c2cccc(NC(=O)c3ccc(C4CC4)cc3)c2CO)cc(NC(=O)NCC2CCCO2)c1=O (centres unmarked) [II-84] as the molecule, how does the IC50 ([1]; Table II pyridinones) read?
A: The IC50 was 60 nM.

Q: For CCC(O)CNC(=O)Nc1cc(-c2cccc(NC(=O)c3ccc(C4CC4)cc3)c2CO)cn(C)c1=O (centres unmarked) [II-85], which IC50 ([1]; Table II pyridinones) is on record?
A: The IC50 was 46 nM.

Q: For CC(O)CNC(=O)Nc1cc(-c2cccc(NC(=O)c3ccc(C4CC4)cc3)c2CO)cn(C)c1=O (centres unmarked) [II-86], which IC50 ([1]; Table II pyridinones) is on record?
A: Its IC50 is 68 nM.

Q: Which IC50 ([1]; Table II pyridinones) does the source give for CC(C)n1nc(Nc2cc(-c3cccc(NC(=O)c4ccc(C5CC5)cc4)c3CO)cn(C)c2=O)ccc1=O [II-88] here?
A: Its IC50 is 140 nM.

Q: Which IC50 ([1]; Table II pyridinones) does the source give for Cn1cc(-c2cccc(NC(=O)c3ccc(S(F)(F)(F)(F)F)cc3)c2CO)cc(Nc2ccc(C(=O)N3CCOCC3)cn2)c1=O [II-89] here?
A: Its IC50 is less than 10 nM.

Q: For CCOc1cccc(Nc2cc(-c3cccc(NC(=O)c4ccc(C5CC5)cc4)c3CO)cn(C)c2=O)n1 [II-90], which IC50 ([1]; Table II pyridinones) is on record?
A: Its IC50 is 81 nM.

Q: Which IC50 ([1]; Table II pyridinones) does the source give for CCn1nc(Nc2cc(-c3cccc(NC(=O)c4ccc(C5CC5)cc4)c3CO)cn(C)c2=O)ccc1=O [II-91] here?
A: The IC50 was 66 nM.

Q: With Cn1cc(-c2cccc(NC(=O)c3ccc(C4CC4)cc3)c2CO)cc(Nc2ccc(=O)n(Cc3ccccc3)n2)c1=O [II-93] as the molecule, how does the IC50 ([1]; Table II pyridinones) read?
A: The IC50 was 298 nM.

Q: For Cc1ccc(Nc2cc(-c3cccc(NC(=O)c4ccc(C5CC5)cc4)c3CO)cn(C)c2=O)nn1 [II-94], which IC50 ([1]; Table II pyridinones) is on record?
A: Its IC50 is 24 nM.

Q: With Cn1cc(-c2cccc(NC(=O)c3ccc(C4CC4)cc3)c2CO)cc(Nc2cccnn2)c1=O [II-95] as the molecule, how does the IC50 ([1]; Table II pyridinones) read?
A: Its IC50 is 20 nM.

Q: With Cn1cc(-c2cccc(NC(=O)c3ccc(C(C)(C)C#N)cc3)c2CO)cc(Nc2ccc(C(=O)N3CCOCC3)cn2)c1=O [II-96] as the molecule, how does the IC50 ([1]; Table II pyridinones) read?
A: Its IC50 is less than 10 nM.

Q: For Cn1cc(-c2cccc(NC(=O)c3ccc(N4CCCCC4)cc3)c2CO)cc(Nc2ccc(C(=O)N3CCOCC3)cn2)c1=O [II-97], which IC50 ([1]; Table II pyridinones) is on record?
A: Its IC50 is 114 nM.

Q: Which IC50 ([1]; Table II pyridinones) does the source give for Cn1cc(-c2cccc(NC(=O)c3ccc(C4CC4)cc3)c2CO)cc(Nc2cnccn2)c1=O [II-98] here?
A: Its IC50 is 90 nM.

Q: For Cn1cc(-c2cccc(NC(=O)c3ccc(C4CC4)cc3)c2CO)cc(Nc2ccc(C(=O)N3CCCC3)cn2)c1=O [II-99], which IC50 ([1]; Table II pyridinones) is on record?
A: Its IC50 is 11 nM.

Q: With Cn1cc(-c2cccc(NC(=O)c3ccc(C4CC4)cc3)c2CO)cc(Nc2ccc(C(=O)N3CC(F)(F)C3)cn2)c1=O [II-100] as the molecule, how does the IC50 ([1]; Table II pyridinones) read?
A: The IC50 was 31 nM.

Q: Which IC50 ([1]; Table II pyridinones) does the source give for Cn1cc(-c2cccc(NC(=O)c3ccc(C4CC4)cc3)c2CO)cc(Nc2ccc(C(=O)N3CCC3)cn2)c1=O [II-101] here?
A: The IC50 was less than 10 nM.

Q: For Cn1cc(-c2cccc(NC(=O)N3Cc4ccccc4C3)c2CO)cc(Nc2ccc(C(=O)N3CCOCC3)cn2)c1=O [II-102], which IC50 ([1]; Table II pyridinones) is on record?
A: The IC50 was less than 10 nM.

Q: Which IC50 ([1]; Table II pyridinones) does the source give for Cn1cc(-c2cccc(NC(=O)c3ccc(C4CC4)cc3)c2CO)cc(Nc2ccc(N3CCOCC3)nn2)c1=O [II-103] here?
A: The IC50 was 14 nM.
